In ChEMBL document CHEMBL1949648, “Synthesis and neurite growth evaluation of new analogues of honokiol, a neolignan with potent neurotrophic activity” (2012):

How the values were obtained:
[1] = system: N2a; test: Induction of neurite outgrowth in mouse Neuro2a cells at 1 uM after 48 hrs by morphometric analysis relative to control; assay type: functional
[2] = system: N2a; test: Induction of neurite outgrowth in mouse Neuro2a cells at 0.1 uM after 48 hrs by morphometric analysis relative to control; assay type: functional

With C=CCc1ccc(O)c(-c2ccc(O)c(-c3ccc(C(=O)OCC)c(C)n3)c2)c1 the Activity [1] was 5.78%.

In the case of C=CCc1ccc(OC)c(-c2ccc(OC)c(C(=O)c3cn(Cc4ccccc4)nn3)c2)c1, the Activity [1] is reported as 6.87%.

In the case of C=CCc1ccc(OC)c(-c2ccc(O)c(-c3ccn(C)n3)c2)c1, the Activity [2] is reported as 5.89%.

C=CCc1ccc(O)c(-c2ccc(O)c(CC=C)c2)c1 [HONOKIOL] showed an Activity [1] of 41.03%.
